Assay results reported in article PMC7093416, “Selective USP7 inhibition elicits cancer cell killing through a p53-dependent mechanism” (Scientific Reports, 2020).
Like-named read-outs stand apart in the source and are kept apart here.

What was measured:
full-length USP7 = biological target: T1, full-length USP7 (Homo sapiens, UniProt Q93009); assay: Ub-AMC enzymatic assay, full-length USP7, 6 h pre-incubation; format: biochemical
T1 construct: The constructs encoding USP7 full length (amino acids 1–1102) and catalytic domain (208–560); inferred from Ni-NTA purification; made in house; host or cells: E. coli BL21 (DE3)
T1 sequence (Q93009 whole entry, the tested form may be a part): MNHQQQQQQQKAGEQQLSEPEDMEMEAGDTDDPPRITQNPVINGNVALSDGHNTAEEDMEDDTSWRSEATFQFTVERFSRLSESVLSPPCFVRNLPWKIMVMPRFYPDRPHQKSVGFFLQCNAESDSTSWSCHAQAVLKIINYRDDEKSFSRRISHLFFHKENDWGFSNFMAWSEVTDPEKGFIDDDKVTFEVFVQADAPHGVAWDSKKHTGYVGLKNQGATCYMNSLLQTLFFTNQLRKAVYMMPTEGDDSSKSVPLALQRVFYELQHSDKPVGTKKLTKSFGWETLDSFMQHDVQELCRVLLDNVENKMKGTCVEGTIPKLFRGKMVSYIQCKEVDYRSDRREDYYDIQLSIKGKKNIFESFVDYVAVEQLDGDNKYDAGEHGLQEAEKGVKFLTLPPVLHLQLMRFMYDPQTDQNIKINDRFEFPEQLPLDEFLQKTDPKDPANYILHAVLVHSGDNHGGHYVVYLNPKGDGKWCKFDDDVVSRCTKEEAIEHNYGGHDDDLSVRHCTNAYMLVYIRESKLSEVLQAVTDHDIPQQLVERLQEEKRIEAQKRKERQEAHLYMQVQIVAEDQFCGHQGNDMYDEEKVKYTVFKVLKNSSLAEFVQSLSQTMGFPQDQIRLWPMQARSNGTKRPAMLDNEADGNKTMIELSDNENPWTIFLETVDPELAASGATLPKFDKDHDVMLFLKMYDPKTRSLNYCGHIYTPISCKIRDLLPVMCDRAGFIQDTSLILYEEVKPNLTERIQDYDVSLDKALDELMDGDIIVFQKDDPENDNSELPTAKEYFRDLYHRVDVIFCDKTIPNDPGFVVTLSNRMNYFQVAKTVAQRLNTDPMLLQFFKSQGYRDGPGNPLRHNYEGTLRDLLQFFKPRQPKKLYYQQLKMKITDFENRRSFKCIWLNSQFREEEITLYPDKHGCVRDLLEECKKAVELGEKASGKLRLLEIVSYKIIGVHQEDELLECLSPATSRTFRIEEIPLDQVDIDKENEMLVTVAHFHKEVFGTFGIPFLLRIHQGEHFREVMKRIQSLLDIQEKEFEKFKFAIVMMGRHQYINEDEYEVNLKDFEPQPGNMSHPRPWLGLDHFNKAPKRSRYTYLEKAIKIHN
Procedure: Full length USP7 was tested for its activity in Ubiquitin-AMC assay in presence or absence of inhibitors. USP7 (5 nM) was pre-incubated for 6 hours at room temperature with different concentrations of inhibitors or DMSO as a control in 50 mM HEPES pH 7.5, 0.5 mM EDTA, 11 uM ovalbumin, and 5 mM DTT. Ubiquitin-AMC (Boston Biochem) was then added to a final concentration of 500 nM. The initial rate of the reaction was measured by collecting fluorescence data at one minute intervals over 30-minute period using a Clariostar fluorescence plate reader at excitation and emission wavelength of 345 and 445 nm respectively. The calculated initial rate values were plotted against inhibitor concentrations to determine IC50s. All the experimental data were plotted using Prism GraphPad. All assays for each compound were performed at least twice for each compound.

HDM2-p53 signaling axis = assay: Whole cell lysate Western blots of MCF7 cells (HDM2, p53, p21); format: cell-based
[1] = system: Ewing Sarcoma, AML, multiple myeloma and rhabdoid cell lines; assay: Cell viability (CellTiter-Glo) in individual cell line panels; format: cell-based
Procedure: Cells were plated in 384-well culture-treated plates and allowed to settle overnight. After drug treament and appropriate incubation time, cell viability was assessed using the CellTiter-Glo Luminescent Cell Viability Assay (Promega). Luminescence was read on a Fluostar Omega Reader (BMG Labtech).

ANXA5 = biological target: T2, ANXA5 (Homo sapiens, UniProt P08758); assay: XL177A-DTB chemoproteomic profiling with XL177A competition, ANXA5; format: binding; conditions: ANXA5 reporter ion intensity
T2 construct: endogenous in cells; host or cells: HEK 293AD lysate
T2 sequence (P08758 1-320): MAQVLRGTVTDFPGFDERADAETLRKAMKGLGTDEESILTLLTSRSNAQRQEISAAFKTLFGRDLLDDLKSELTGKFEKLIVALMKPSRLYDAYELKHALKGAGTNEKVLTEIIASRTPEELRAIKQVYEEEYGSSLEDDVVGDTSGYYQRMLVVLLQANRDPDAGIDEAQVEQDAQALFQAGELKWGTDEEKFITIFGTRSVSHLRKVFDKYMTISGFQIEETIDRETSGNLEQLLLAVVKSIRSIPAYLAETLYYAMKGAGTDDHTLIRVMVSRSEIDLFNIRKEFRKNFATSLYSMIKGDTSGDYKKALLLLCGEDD
Procedure: HEK 293AD cells were lysed as described above, and the lysate was cleared by centrifugation. Samples were diluted to 10 mg/mL, and 200 μL lysate (2 mg protein total) was incubated with the indicated concentrations of XL177A for 4 hours at RT, then 2 μM of WH114A for 4 additional hours. SDS was added to a final concentration of 1.2% (27.2 μL of a 10% stock), and denatured by heating to 80 °C for 5 minutes. After cooling to RT, 1125 μL 1X PBS was added to dilute the final SDS concentration to 0.2%. 50 μL streptavidin agarose slurry was added to each sample, followed by incubation at RT for 3 hours. After streptavidin enrichment, samples were washed vigorously (2×0.2% SDS, 3x PBS, 3x ddH2O). After the final wash, all supernatant was removed using a flat-bottom tip, and the resin was flash frozen and stored at −80 °C until workup for TMT labeling.
To remove rapigest, recovered supernatants were acidified with 10% TFA, incubated at 37 °C for 45 minutes, and centrifuged at 14,000 rpm for 15 minutes at 4 °C. Peptides were then desalted by C18, and dried by vacuum centrifugation. Dried peptides were reconstituted in 50 mM pH8.0 TEAB and labeled with TMT reagent at RT for 1 hour. TMT reactions were pooled and treated with hydroxylamine according to the manufacturer’s instructions. Peptide mixtures were then dried, reconstituted in 50 mM ammonium bicarbonate and desalted by SP3[53]. Eluted peptides were then analyzed by nanoflow LC-MS/MS as described[64] with a NanoAcquity UPLC system (Waters, Milford, MA) interfaced to a QExactive HF mass spectrometer (Thermofisher Scientific, San Jose, CA). TMT labeled peptides were injected onto a precolumn (4 cm POROS 10R2, Applied Biosystems, Framingham, MA), resolved on an analytical column (30 µm I.D. × 50 cm packed with 5 µm Monitor C18) and introduced to the mass spectrometer by ESI (spray voltage = 3.5 kV, flow rate ~30 nL/min). The mass spectrometer was operated in data dependent mode such that the 15 most abundant ions in each MS scan (m/z 300–2000, 120 K resolution, target = 3E6, lock mass for 445.120025 enabled) were subjected to MS/MS (m/z 100–2000, 30 K resolution, target = 1E5, max fill time = 100 ms). Dynamic exclusion was selected with a repeat count of 1 and an exclusion time of 30 seconds. MS/MS data was extracted to.mgf using mulitplierz scripts[54],[55] and searched against a forward-reverse human NCBI refseq database using Mascot version 2.6. Search parameters specified fixed carbamidomethylation of cysteine, fixed N-terminal and lysine TMT labelling, and variable oxidation (methionine). Additional multiplierz scripts were used to filter results to 1% FDR and derive protein-level aggregate reporter ion intensities using peptides mapping uniquely into the genome.

USP7-F291N = biological target: T3, USP7-F291N (Homo sapiens, UniProt Q93009, F291N); assay: Ub-AMC enzymatic assay, USP7-F291N mutant; format: biochemical; conditions: 6-hr pre-incubation
T3 construct: made in house
T3 sequence (Q93009 whole entry F291N): as the sequence (Q93009 whole entry, the tested form may be a part) above, with F291N counted along it

MCF7 cells = assay: Cell cycle analysis by propidium iodide staining; format: cell-based; conditions: 1 μM, 24 hours
Procedure: For propidium iodide (PI) staining, treated cells (~1 million per condition) were washed with cold PBS, then fixed in 80% ethanol overnight at −20 °C. After fixing, cells were pelleted, washed with PBS, and reconstituted in 500 μL FxCycle PI / RNAse A staining solution (Thermo Fisher). Cells were stored overnight at 4 °C and analyzed using a BD Fortessa flow cytometer.

[2] = XL177A-DTB pulldown, HEK293AD lysate pre-treated 100nM XL177A
[3] = XL177A-DTB pulldown, HEK293AD lysate pre-treated 1uM XL177A
[4] = XL177A-DTB pulldown, HEK293AD lysate pre-treated 10uM XL177A
[5] = average of Run 1 and Run 2, 100nM XL177A
[6] = average of Run 1 and Run 2, 1uM XL177A
[7] = average of Run 1 and Run 2, 10uM XL177A

CN1CCN(CCC(=O)Nc2ccc3c(=O)n(CC4(O)CCN(C(=O)[C@H](CCCNC(=O)c5ccc6c(Cl)c7c(nc6c5)CCCC7)Cc5ccccc5)CC4)cnc3c2)CC1 [XL177B]
IC50 (full-length USP7; Ub-AMC, 6-hour pre-treatment, read-out: IC50): 340 nM
effects on HDM2-p53 signaling and cell cycle (HDM2-p53 signaling axis; negative control): did not exert any of the same effects except at 10 μM
less potent than XL177A in the cell lines tested [1]: ~ 100 fold

CN1CCN(CCC(=O)Nc2ccc3c(=O)n(CC4(O)CCN(C(=O)[C@@H](CCCNC(=O)c5ccc6c(Cl)c7c(nc6c5)CCCC7)Cc5ccccc5)CC4)cnc3c2)CC1 [XL177A]
Run 1 100nM 1 (ANXA5; [2]): 178152
Run 1 100nM 2 (ANXA5; [2]): 165955
Run 1 100nM 3 (ANXA5; [2]): 128000
Run 2 100nM 1 (ANXA5; [2]): 93111
Run 2 100nM 2 (ANXA5; [2]): 89444
Run 2 100nM 3 (ANXA5; [2]): 79751
Run 1 1uM 1 (ANXA5; [3]): 144604
Run 1 1uM 2 (ANXA5; [3]): 674321
Run 1 1uM 3 (ANXA5; [3]): 223998
Run 2 1uM 1 (ANXA5; [3]): 92176
Run 2 1uM 2 (ANXA5; [3]): 333280
Run 2 1uM 3 (ANXA5; [3]): 123099
Run 1 10uM 1 (ANXA5; [4]): 147137
Run 1 10uM 2 (ANXA5; [4]): 166473
Run 2 10uM 1 (ANXA5; [4]): 88314
Run 2 10uM 2 (ANXA5; [4]): 102591
AVE 100nM 1 (ANXA5; [5]): 135632
AVE 100nM 2 (ANXA5; [5]): 127700
AVE 100nM 3 (ANXA5; [5]): 103876
AVE 1uM 1 (ANXA5; [6]): 118390
AVE 1uM 2 (ANXA5; [6]): 503800
AVE 1uM 3 (ANXA5; [6]): 173548
AVE 10uM 1 (ANXA5; [7]): 117726
AVE 10uM 2 (ANXA5; [7]): 134532
IC50 (full-length USP7; read-out: potency as irreversible inhibitor of USP7): 0.34 nM
IC50 (USP7-F291N): 629 nM
p53 and p21 protein levels (HDM2-p53 signaling axis): increases in p53 and downstream p21 protein levels
time to degradation of HDM2 (HDM2-p53 signaling axis): ≤ 2 h
cell cycle effect (MCF7 cells): complete G1 arrest
TP53-WT cell lines sensitive [1]: 9 out of 10
TP53-mutant cell lines sensitive [1]: 1 out of 17
